Measurements from patent US20240409557A1, “5,6-FUSED AND 6,6-FUSED BICYCLIC ALCOHOLS AND ETHERS AND COMPOSITIONS FOR USE AS 15-PROSTAGLANDIN DEHYDROGENASE MODULATORS” (AMGEN INC., priority 2023, published 2024).

Columns and labels:
[1] = target: T1, 15-PGDH in A549 cells (Homo sapiens, UniProt P15428); experiment: A549 cellular 15-PGDH assay (PGE2 accumulation, HTRF); format: cell-based; settings: interleukin-stimulated, inhibitor 24 hrs, PGE2 by competitive HTRF, read-out: A549 Cell Assay IC50
T1 construct: endogenous in cells; host or cells: A549
T1 sequence (P15428 1-266): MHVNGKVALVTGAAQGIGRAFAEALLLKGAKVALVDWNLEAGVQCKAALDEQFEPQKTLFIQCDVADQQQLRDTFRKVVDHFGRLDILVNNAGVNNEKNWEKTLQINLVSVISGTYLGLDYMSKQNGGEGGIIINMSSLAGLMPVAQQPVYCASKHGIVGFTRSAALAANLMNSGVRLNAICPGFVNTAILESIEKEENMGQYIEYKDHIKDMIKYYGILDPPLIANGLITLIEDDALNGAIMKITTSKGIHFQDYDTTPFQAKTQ
Summary of the method: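 Supernatant PGE2 was quantified by competitive HTRF, in which sample PGE2 blocks FRET between a europium cryptate-labelled antibody and labelled PGE2. It came from A549 epithelial cells induced with IL-13. IC50s were calculated from the inversely proportional signal.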

[2] = target: T2, human recombinant 15-PGDH (Homo sapiens, UniProt P15428); experiment: Recombinant 15-PGDH enzymatic inhibition assay (PGDH-Lumi, NADH signal); format: biochemical; settings: recombinant 15-PGDH; 15 min pre-incubation, 60 min reaction with PGE2 and NAD+, NADH signal
T2 sequence (P15428 1-266): T1 sequence (P15428 1-266)
Summary of the method: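 Buffer 50 mM Tris pH 7.5 with 0.01% Tween-20 and […]; compound, 22 two-fold dilutions, pre-incubated with enzyme 15 min before substrate.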

Compound	IC50 [1] [nM]	IC50 [2] [nM]
Cc1cn2cc(-c3ccc4cc(C5(O)CC(F)(F)C5)sc4n3)ccc2n1 [Compound C37, 3,3-difluoro-1-(6-(2-methylimidazo[1,2-a]pyridin-6-yl)thieno[2,3-b]pyridin-2-yl)cyclobutanol]	2.28	9.01
Cn1cc2cc(-c3ccc4cc(C(O)C5CCC(F)(F)CC5)sc4n3)cnc2n1 (stereo not drawn) [Compound B31, (4,4-difluorocyclohexyl)(6-(2-methyl-2H-pyrazolo[3,4-b]pyridin-5-yl)thieno[2,3-b]pyridin-2-yl)methanol]	0.553	0.42
Cn1nnc2cc(-c3ncc4cc([C@]5(O)C[C@@H](C(F)(F)F)C5)sc4n3)cnc21 [Compound C95C, cis-1-(2-(3-methyl-3H-[1,2,3]triazolo[4,5-b]pyridin-6-yl)thieno[2,3-d]pyrimidin-6-yl)-3-(trifluoromethyl)cyclobutanol]	9.76	1.26
Cn1cc2cc(-c3cnc4sc([C@H](O)C5CC(F)(F)C5)cc4c3)cnc2n1 (single isomer, unassigned) [Compound B77R]	1.29	4.93
Cn1cc2cc(-c3ccc4cc([C@@H](O)C56CC(C(F)(F)F)(C5)C6)sc4n3)cnc2n1 (single isomer, unassigned) [Compound B91S]	2.37	34.9
CC(C)n1cc2cc(-c3ccc4cc([C@H](O)C5CC(F)(F)C5)sc4n3)cnc2n1 (single isomer, unassigned) [Compound B64R]	0.311	0.325
Cn1cc2cc(-c3ccc4sc([C@]5(O)C[C@@H](C(F)(F)F)C5)cc4n3)cnc2n1 [Compound C86C, cis-1-(5-(2-methyl-2H-pyrazolo[3,4-b]pyridin-5-yl)thieno[3,2-b]pyridin-2-yl)-3-(trifluoromethyl)cyclobutanol]	4.12	1.52
CCC[C@@H](O)c1cc2ccc(-c3cnc4nn(C)cc4c3)nc2s1 (single isomer, unassigned) [Compound B27R]	0.728	0.255
[2H][C@@](O)(c1cc2ccc(-c3cnc4nn(C)cc4c3)nc2s1)C1CC(F)(F)C1 (single isomer, unassigned) [Compound B79S]	0.37	0.706
Cn1cc2cc(-c3ccc4sc([C@]5(O)C[C@@](C)(C#N)C5)cc4n3)cnc2n1 (single isomer, unassigned) [Compound C106C, cis-3-hydroxy-1-methyl-3-(5-(2-methyl-2H-pyrazolo[3,4-b]pyridin-5-yl)thieno[3,2-b]pyridin-2-yl)cyclobutanecarbonitrile]	29.4	16.7
O[C@@H](c1cc2ccc(-c3cnc4[nH]nnc4c3)nc2s1)C1CCOCC1 (single isomer, unassigned) [Compound B44R]	2.61	0.464
CO[C@H]1C[C@](O)(c2cc3cnc(-c4cnc5nn(C)cc5c4)nc3s2)C1 [Compound C94C, cis-3-methoxy-1-(2-(2-methyl-2H-pyrazolo[3,4-b]pyridin-5-yl)thieno[2,3-d]pyrimidin-6-yl)cyclobutanol]	1.45	2
Cn1cc2cc(-c3ccc4cc([C@@H](O)[C@@H]5CCOC5)sc4n3)cnc2n1 (single isomer, unassigned) [Compound B19SR]	3.53	1.87
CCC(O)c1cc2c(C3CC3)cc(-c3cnc4nn(C)cc4c3)nc2s1 (stereo not drawn) [Compound B13, 1-(4-cyclopropyl-6-(2-methyl-2H-pyrazolo[3,4-b]pyridin-5-yl)thieno[2,3-b]pyridin-2-yl)-1-propanol]	4.19	0.901
Cn1cc2cc(-c3ccc4cc([C@H](O)CCC(F)(F)F)sc4c3)cnc2n1 (single isomer, unassigned) [Compound B60R]	3.38	1.17
Cn1cc2cc(-c3ccc4cc(C(O)C5CC5)sc4n3)cnc2n1 (stereo not drawn) [Compound B16, cyclopropyl(6-(2-methyl-2H-pyrazolo[3,4-b]pyridin-5-yl)thieno[2,3-b]pyridin-2-yl)methanol]	1.19	0.471
Cn1cc2cc(-c3ccc4cc(C5(O)CC6(CCCCC6)C5)sc4n3)cnc2n1 [Compound C52, 2-(6-(2-methyl-2H-pyrazolo[3,4-b]pyridin-5-yl)thieno[2,3-b]pyridin-2-yl)spiro[3.5]nonan-2-ol]	0.0938	0.361
CCn1cc2cc(-c3ccc4cc(C5(O)CC(F)(F)C5)sc4n3)cnc2n1 [Compound C32, 1-(6-(2-ethyl-2H-pyrazolo[3,4-b]pyridin-5-yl)thieno[2,3-b]pyridin-2-yl)-3,3-difluorocyclobutanol]	0.255	0.369
Cn1nnc2cc(-c3ccc4nc([C@]5(O)C[C@H](OC(F)(F)F)C5)sc4n3)cnc21 [Compound C112C, cis-1-(5-(3-methyl-3H-[1,2,3]triazolo[4,5-b]pyridin-6-yl)[1,3]thiazolo[5,4-b]pyridin-2-yl)-3-(trifluoromethoxy)cyclobutanol]	3.15	0.589
Cn1cc2cc(-c3ccc4cc([C@@H](O)C5CC(F)(F)C5)ccc4n3)cnc2n1 (single isomer, unassigned) [Compound D7S]	168	265
Cn1cc2cc(-c3ccc4cc([C@H](O)[C@H]5CCC5(F)F)sc4n3)cnc2n1 (single isomer, unassigned) [Compound B94RR]	0.661	0.34
Cn1cc2cc(-c3ccc4cc([C@@H](O)C5COC5)sc4n3)cnc2n1 (single isomer, unassigned) [Compound B28S]	9.56	12.2
COCC(O)c1cc2ccc(-c3cnc4nn(C)cc4c3)nc2s1 (stereo not drawn) [Compound B32, 2-methoxy-1-(6-(2-methyl-2H-pyrazolo[3,4-b]pyridin-5-yl)thieno[2,3-b]pyridin-2-yl)ethanol]	7.49	1.18

More lines, in order of falling IC50 [1], values ahead:

IC50 [1] [nM]	IC50 [2] [nM]	Compound
375	922	Cc1c([C@@H](O)C2CCOCC2)sc2nc(-c3cnc4c(c3)nnn4C)ccc12 (single isomer, unassigned) [Compound B89S]
196	13.8	O[C@@H](c1cc2ccc(-c3ccc4oncc4c3)nc2s1)C1CCOCC1 (single isomer, unassigned) [Compound B43R]
102	89.6	C[C@H](O)c1cc2c(-c3ccnn3C)cc(-c3cnc4nn(C)cc4c3)nc2s1 (single isomer, unassigned) [Compound B6S]
14.2	2.64	Cc1c([C@H](CO)C2CC(F)(F)C2)sc2nc(-c3cnc4nn(C)cc4c3)ccc12 (single isomer, unassigned) [Compound B93S]
5.77	1.65	CO[C@]1(C)C[C@](O)(c2cc3ccc(-c4cnc5c(c4)nnn5C)nc3s2)C1 (single isomer, unassigned) [Compound C102T, trans-3-methoxy-3-methyl-1-(6-(3-methyl-3H-[1,2,3]triazolo[4,5-b]pyridin-6-yl)thieno[2,3-b]pyridin-2-yl)cyclobutanol]
2.53	0.971	CO[C@]1(C)C[C@@](O)(c2cc3ccc(-c4cnc5c(c4)nnn5C)nc3s2)C1 (single isomer, unassigned) [Compound C102C, cis-3-methoxy-3-methyl-1-(6-(3-methyl-3H-[1,2,3]triazolo[4,5-b]pyridin-6-yl)thieno[2,3-b]pyridin-2-yl)cyclobutanol]
2.43	0.302	O[C@]1(c2cc3ccc(-c4cnc5[nH]nnc5c4)nc3s2)C[C@H](C(F)F)C1 [Compound C103C, cis-3-(difluoromethyl)-1-(6-(3H-[1,2,3]triazolo[4,5-b]pyridin-6-yl)thieno[2,3-b]pyridin-2-yl)cyclobutanol]
1.5	1.22	Cn1cc2cc(-c3ccc4cc([C@@H](O)[C@H]5CC5(F)F)sc4n3)cnc2n1 (single isomer, unassigned) [Compound B85SR]
0.722	1.16	CO[C@H]1C[C@](O)(c2sc3nc(-c4cnc5nn(C)cc5c4)ccc3c2Cl)C1 [Compound C69C, cis-1-(3-chloro-6-(2-methyl-2H-pyrazolo[3,4-b]pyridin-5-yl)thieno[2,3-b]pyridin-2-yl)-3-methoxycyclobutanol]
0.671	0.3	Cn1cc2cc(-c3ncc4cc([C@]5(O)C[C@@H](OC(F)(F)F)C5)sc4n3)cnc2n1 [Compound C100C, cis-1-(2-(2-methyl-2H-pyrazolo[3,4-b]pyridin-5-yl)thieno[2,3-d]pyrimidin-6-yl)-3-(trifluoromethoxy)cyclobutanol]
0.522	10.1	CO[C@H]1C[C@@H]([C@H](O)c2cc3ccc(-c4cnc5nn(C)cc5c4)nc3s2)C1 (single isomer, unassigned) [Compound B88SC]
0.361	0.58	Cn1cc2cc(-c3ccc4nc(C5(O)CC(C)(C)C5)sc4n3)cnc2n1 [Compound C68, 3,3-dimethyl-1-(5-(2-methyl-2H-pyrazolo[3,4-b]pyridin-5-yl)[1,3]thiazolo[5,4-b]pyridin-2-yl)cyclobutanol]
0.0479	0.216	Cn1cc2cc(-c3ccc4nc([C@H](O)C5CC(F)(F)C5)sc4n3)cnc2n1 (single isomer, unassigned) [Compound B72R]
